Here are results for three compounds from patent publication US11912705B2, “Cathinone derivatives, pharmaceutical formulations, and methods” (The Corporation of Mercer University, priority 2020, dated 2024).

Molecules are shown by their SMILES.

Test [1] addresses T1, Norepinephrine transporter (h) (Homo sapiens, UniProt P23975).
T1 construct: Eurofins/Cerep (contract testing)
Description: Norepinephrine transporter (h) (antagonist radioligand) competition binding. Conditions: for nH: Norepinephrine transporter (h) (antagonist radioligand). Here is the method:
(§1) For antagonist assays, Kb affinity values were calculated from IC50 values using GraphPad Prism 9 (San Diego, Calif. USA).

The target of test [2] is T2, Dopamine transporter (Homo sapiens, UniProt Q01959).
T2 construct: Eurofins/Cerep (contract testing)
T2 sequence (Q01959 whole entry): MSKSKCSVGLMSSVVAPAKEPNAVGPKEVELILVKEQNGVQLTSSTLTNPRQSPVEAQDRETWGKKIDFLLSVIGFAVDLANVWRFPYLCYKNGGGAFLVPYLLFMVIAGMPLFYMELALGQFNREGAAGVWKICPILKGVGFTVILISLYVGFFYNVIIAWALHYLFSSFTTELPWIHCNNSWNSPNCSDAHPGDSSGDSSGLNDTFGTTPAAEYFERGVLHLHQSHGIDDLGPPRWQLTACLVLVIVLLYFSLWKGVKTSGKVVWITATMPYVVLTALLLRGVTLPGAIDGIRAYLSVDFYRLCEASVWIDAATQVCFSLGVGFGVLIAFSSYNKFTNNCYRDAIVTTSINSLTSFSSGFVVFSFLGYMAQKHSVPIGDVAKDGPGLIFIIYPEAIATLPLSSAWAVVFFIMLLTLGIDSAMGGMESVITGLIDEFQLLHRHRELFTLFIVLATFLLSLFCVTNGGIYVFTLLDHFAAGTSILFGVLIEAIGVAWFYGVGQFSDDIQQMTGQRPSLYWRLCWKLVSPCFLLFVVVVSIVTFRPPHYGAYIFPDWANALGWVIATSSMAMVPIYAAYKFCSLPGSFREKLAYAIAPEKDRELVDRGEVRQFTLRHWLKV
Description: Dopamine transporter uptake (h). Type of test: cell-based. Here is the method: (§2) Compounds (1) and (2) were tested at several concentrations for IC50 or EC50 determination at target receptors. […] For antagonist assays, Kb affinity values were calculated from IC50 values using GraphPad Prism 9 (San Diego, Calif. USA).

For test [3], the target named is T3, Norepinephrine transporter (Homo sapiens, UniProt P23975).
T3 construct: Eurofins/Cerep (contract testing)
T3 sequence (P23975 whole entry): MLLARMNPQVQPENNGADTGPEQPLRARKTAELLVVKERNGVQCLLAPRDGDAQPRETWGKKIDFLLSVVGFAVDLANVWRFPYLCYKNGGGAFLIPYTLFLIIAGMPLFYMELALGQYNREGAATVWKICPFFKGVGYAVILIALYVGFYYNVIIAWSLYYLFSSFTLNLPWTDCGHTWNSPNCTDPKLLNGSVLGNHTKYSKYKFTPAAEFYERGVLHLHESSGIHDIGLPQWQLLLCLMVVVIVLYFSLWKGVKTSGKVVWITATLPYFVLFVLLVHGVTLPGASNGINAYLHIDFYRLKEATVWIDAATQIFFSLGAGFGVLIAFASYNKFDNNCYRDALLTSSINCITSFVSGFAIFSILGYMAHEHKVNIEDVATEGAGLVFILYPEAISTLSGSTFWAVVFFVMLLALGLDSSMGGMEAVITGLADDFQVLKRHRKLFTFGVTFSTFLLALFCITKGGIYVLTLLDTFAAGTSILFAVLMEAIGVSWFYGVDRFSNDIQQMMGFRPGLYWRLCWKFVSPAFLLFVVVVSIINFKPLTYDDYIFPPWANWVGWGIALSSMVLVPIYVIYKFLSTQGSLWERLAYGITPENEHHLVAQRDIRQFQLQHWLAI
Put plainly: Norepinephrine transporter uptake (h). Type of test: cell-based. On the procedure: as §1

The target in test [4] is T4, M2 (h) (Homo sapiens, UniProt P08172).
T4 construct: expressed in transfected cells; host or cells: CHO cells (human recombinant)
T4 sequence (P08172 1-466): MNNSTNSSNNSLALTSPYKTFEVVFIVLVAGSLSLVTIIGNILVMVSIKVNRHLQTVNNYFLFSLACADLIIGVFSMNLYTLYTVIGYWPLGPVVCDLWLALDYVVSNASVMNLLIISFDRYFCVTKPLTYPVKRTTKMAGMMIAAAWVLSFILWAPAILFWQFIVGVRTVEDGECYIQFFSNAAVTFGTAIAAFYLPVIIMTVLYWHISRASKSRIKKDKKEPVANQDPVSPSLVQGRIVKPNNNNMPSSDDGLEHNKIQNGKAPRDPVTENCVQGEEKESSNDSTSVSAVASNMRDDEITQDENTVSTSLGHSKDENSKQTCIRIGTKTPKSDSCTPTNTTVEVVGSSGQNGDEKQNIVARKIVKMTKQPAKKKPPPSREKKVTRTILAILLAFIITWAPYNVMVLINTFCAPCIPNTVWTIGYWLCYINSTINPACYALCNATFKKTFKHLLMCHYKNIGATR
Description: M2 (h) antagonist effect, cAMP HTRF cellular functional assay. The format is cell-based. On the procedure:
as §2
Background: In TR-FRET formats the signal depends on donor and acceptor labels being close together.

Test [5] has as its system mice on the FVB background. Description: Open field locomotor activity in mice. The settings on record: 2.8 mg/kg, s.c., 20-min open field. The format is in vivo. On the procedure: (§3) Since functional inhibition of neurotransmitter transporters, particularly DAT, is classically known to cause psychomotor stimulation, the ability of Compound (1) to induce this effect in mice was assessed, directly comparing results to α-PHP, a pyrrolidine-substituted analog of Compound (1). Adult male and female mice on the FVB background were injected subcutaneously and then immediately placed inside of an open field chamber, where their activity was recorded automatically for 20-min by an overhead camera connected to a PC running EthoVision XT software. […] Data are means (±SEM).

Test [6] deals with mice on the FVB background. Description: Defecation (fecal pellets) / gastrointestinal motility in mice. Type of test: in vivo. The settings on record: 2.8 mg/kg, s.c. Here is the method:
as §3
Consistent with pre-synaptic M2R antagonist activity, also observed was an increase in defecation caused by Compound (1) (FIG. 4). […] Regarding FIG. 4, Compound (1) (2.8 mg/kg, s.c.) increased gastrointestinal motility compared to vehicle and α-PHP (2.8 mg/kg, s.c.) treated mice. Scatter dot plots with means (±SEMs).

Test [7] deals with T5, M2Rs (Homo sapiens, UniProt P08172).
T5 sequence (P08172 1-466): T4 sequence (P08172 1-466)
Put plainly: M2R β-arrestin recruitment. Type of test: cell-based. The text has this: Data are shown as normalized means (±SEM) of two, independent determinations, with oxotremorine tested at each concentration in duplicate and α-PHP tested in quadruplicate. [*Basal signaling is defined as the normalized RLU emitted by untreated cells.]
A general note: Activated receptors often draw arrestin, which recruitment assays turn into a signal.

Test [8] concerns the target T6, human M1Rs (Homo sapiens, UniProt P11229).
T6 construct: host or cells: HEK293 (CRL-1573, ATCC), transient
T6 sequence (P11229 1-460): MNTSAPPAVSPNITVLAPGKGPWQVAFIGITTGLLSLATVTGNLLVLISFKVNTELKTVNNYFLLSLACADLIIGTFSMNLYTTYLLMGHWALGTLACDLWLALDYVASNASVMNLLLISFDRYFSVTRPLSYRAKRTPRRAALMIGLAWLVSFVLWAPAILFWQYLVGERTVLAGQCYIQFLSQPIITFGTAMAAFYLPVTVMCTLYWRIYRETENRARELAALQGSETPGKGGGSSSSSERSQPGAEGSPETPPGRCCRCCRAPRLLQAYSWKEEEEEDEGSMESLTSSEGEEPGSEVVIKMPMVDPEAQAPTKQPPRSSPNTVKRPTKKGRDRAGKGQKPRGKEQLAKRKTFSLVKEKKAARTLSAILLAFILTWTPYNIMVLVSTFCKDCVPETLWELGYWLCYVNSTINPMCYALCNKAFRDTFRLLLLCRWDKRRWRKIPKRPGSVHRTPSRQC
Description: M1R phosphoinositide hydrolysis (IP-One HTRF). The format is cell-based.

Test [9] has as its target T7, human DAT (Homo sapiens, UniProt Q01959). Conditions: from Eshleman et al. 2017, cited from earlier work.
The target of test [10] is T8, human NET (Homo sapiens, UniProt P23975). The settings on record: from Eshleman et al. 2017, cited from earlier work.
T8 sequence (P23975 whole entry): as the sequence (P23975 whole entry) above
Test [11] deals with T9, human SERT (Homo sapiens, UniProt P31645). Conditions: read-out: Affinity (Ki) SERT; from Eshleman et al. 2017; cited from earlier work.
T9 sequence (P31645 whole entry): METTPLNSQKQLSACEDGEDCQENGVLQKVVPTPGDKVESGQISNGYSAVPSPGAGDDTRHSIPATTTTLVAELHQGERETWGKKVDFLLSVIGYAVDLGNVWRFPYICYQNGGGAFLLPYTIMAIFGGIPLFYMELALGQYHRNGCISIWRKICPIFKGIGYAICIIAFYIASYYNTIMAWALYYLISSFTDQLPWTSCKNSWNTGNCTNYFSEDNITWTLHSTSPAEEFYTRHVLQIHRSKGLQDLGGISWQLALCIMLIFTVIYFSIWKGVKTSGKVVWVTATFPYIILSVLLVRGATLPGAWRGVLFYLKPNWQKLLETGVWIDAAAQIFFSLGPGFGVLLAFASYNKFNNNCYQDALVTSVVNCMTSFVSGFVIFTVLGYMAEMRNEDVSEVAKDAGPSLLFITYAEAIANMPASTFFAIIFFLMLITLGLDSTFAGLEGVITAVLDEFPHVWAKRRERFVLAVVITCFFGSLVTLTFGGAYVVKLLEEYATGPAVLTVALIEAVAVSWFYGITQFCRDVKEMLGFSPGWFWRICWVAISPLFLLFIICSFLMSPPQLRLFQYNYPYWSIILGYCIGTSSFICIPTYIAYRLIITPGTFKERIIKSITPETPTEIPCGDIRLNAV
For test [12], the target named is T7, human DAT. Conditions: read-out: Uptake Inhibition (IC50) DAT; from Eshleman et al. 2017; cited from earlier work.
Test [13] deals with T8, human NET. Conditions: read-out: Uptake Inhibition (IC50) NET; from Eshleman et al. 2017; cited from earlier work.
Test [14] has as its target T9, human SERT. The settings on record: read-out: Uptake Inhibition (IC50) SERT; from Eshleman et al. 2017; cited from earlier work.

T7 sequence (Q01959 whole entry): as the sequence (Q01959 whole entry) above
T1 sequence (P23975 whole entry): as the sequence (P23975 whole entry) above

What is called IC50 is the concentration at which inhibition is half-maximal. Usually Ki stands for the dissociation constant of the complex between target and ligand, obtained from inhibition or displacement. In the case of `CCCCC(C(=O)c1ccccc1)N1CCCCC1` (stereo not shown) [Compound (1), 1-phenyl-2-(piperidin-1-yl)hexan-1-one], in [1], the concentration for half-maximal inhibition (IC50) was determined as 8700 nM, the Ki was 6500 nM and the nH was determined as 1.6. In addition, inhibition in test [2] was half-maximal at 47 nM (IC50). This compound also showed an IC50 in test [3] of 1300 nM. In [4], this compound returned an IC50 of 1700 nM and a Kb of 120 nM. Moreover, the locomotor activity result in [5] was “nearly indistinguishable from vehicle-treated mice”. The “number of fecal pellets (defecation, gastrointestinal motility)” value in [6] was “significantly higher than both vehicle (p<0.0001) and α-PHP treated mice”.
Consider `CCCCC(C(=O)c1ccccc1)N1CCCCCC1` (stereo not shown) [Compound (2), 2-(azepan-1-yl)-1-phenylhexan-1-one], for which the IC50 stood at 13000 nM in [1], 70 nM in test [2], 1100 nM in test [3] and 2000 nM in test [4]. For the same compound, in test [1], the Ki amounted to 9800 nM. Further, the nH in test [1] is reported as 0.9. Also, the Kb in test [4] came to 160 nM.
On to `CCCCC(C(=O)c1ccccc1)N1CCCC1` (stereo not drawn) [α-PHP, 1-phenyl-2-(pyrrolidin-1-yl)hexan-1-one], for which the Kb in test [7] is 501 nM; in [8], 1380 nM. Besides, the locomotor activity entry in test [5] is “robustly increased locomotor activity compared to vehicle”. The “number of fecal pellets (defecation, gastrointestinal motility)” value in [6] was “no significant difference was observed between the vehicle and α-PHP groups”. For the same compound, in [9], the “affinity at DAT, fold higher than α-PPP” value is recorded as 81 fold. Besides, the Ki in test [9] (read-out: Affinity (Ki) DAT) was 16 nM; in [10] (read-out: Affinity (Ki) NET) it was 300 nM; in [11], 33000 nM. Besides, the “affinity at NET, fold higher than α-PPP” value in test [10] was 6 fold. The IC50 in test [12] was 22 nM; in [13] it was 30 nM; in test [14], 40000 nM.
